Assay [1] has as its system Mycobacterium tuberculosis (strain H37RV). As to the kind of experiment: In-vitro method for testing compounds against M. tuberculosis (resazurin growth inhibition). The assay is classed as cell-based. The following applies: 7 days incubation; for IC50: Mycobacterium tuberculosis, 168 h, read-out: M. tuberculosis pIC50 (converted).
For the next assay, the system named is M. Smegmatis ATCC607. The experiment in a line: In-vitro anti-bacterial activity against strain M. smegmatis ATCC607 (Alamar Blue growth inhibition). It counts as cell-based. The following applies: 48 hours incubation; for IC50: Mycolicibacterium smegmatis, read-out: M. smegmatis pIC50 (converted). The method, then:
Serial five-fold dilutions (45 μl in 180 μl) were made directly in the microtiter plates from column 2 to 11 using a customised robot system (Zymark Corp., Hopkinton, Mass.). Pipette tips were changed after every 3 dilutions to minimize pipetting errors with high hydrophobic compounds. Untreated control samples with (column 1) and without (column 12) inoculum were included in each microtiter plate. Approximately 250 CFU per well of bacteria inoculum, in a volume of 100 μl in 2.8× Mueller-Hinton broth medium, was added to the rows […]. The same volume of broth medium without inoculum was added to column 12 in row A to H. The cultures were incubated at 37° C. for 48 hours in a humidified 5% CO2 atmosphere (incubator with open air valve and continuous ventilation). At the end of incubation, two days after inoculation, the bacterial growth was quantitated fluorometrically. Therefore Alamar Blue (10×) was added to all wells in a volume of 20 μl and plates were incubated for another 2 hours at […] The fluorescence was read in a computer-controlled fluorometer (Cytofluor, Biosearch) at an excitation wavelength of 530 nm and an emission wavelength of 590 nm (gain 30). The percentage growth inhibition achieved by the compounds was calculated according to standard methods and expressed as pIC50 values.

The next assay deals with ECO 25922. As to the kind of experiment: Microtitre plate assay, IC90 determination, ECO 25922. It counts as cell-based, E. coli. As to conditions: 90% inhibitory concentration for bacterial growth, strain ECO 25922, 24 hours at 37° C.; for IC90: Escherichia coli, read-out: IC90 (μg/ml) ECO 25922. On the procedure: Stocks (0.5 ml/tube) were stored at -70° C. until use. Bacteria titrations were performed in microtiter plates to detect the TCID50, in which the TCID50 represents the dilution that gives rise to bacterial growth in 50% of inoculated cultures. In general, an inoculum level of approximately 100 TCID50 was used for susceptibility testing. […] Serial five-fold dilutions (45 μl in 180 μl) were made directly in the microtiter plates from column 2 to reach column 11. Untreated control samples with (column 1) and without (column 12) inoculum were included in each microtiter plate. Depending on the bacteria type, approximately 10 to 60 CFU per well of bacteria inoculum (100 TCID50), in a volume of 100 μl in 2.8× Mueller-Hinton broth medium, was added to the rows […]. The same volume of broth medium without inoculum was added to column 12 in row A to H. The cultures were incubated at 37° C. for 24 hours under a normal atmosphere (incubator with open air valve and continuous ventilation). At the end of incubation, one day after inoculation, the bacterial growth was quantitated fluorometrically. Therefore resazurin (0.6 mg/ml) was added in a volume of 20 μl to all wells 3 hours after inoculation, and the plates were re-incubated overnight. A change in colour from blue to pink indicated the growth of bacteria. The fluorescence was read in a computer-controlled fluorometer (Cytofluor Biosearch) at an excitation wavelength of 530 nm and an emission wavelength of 590 nm. The % growth inhibition achieved by the compounds was calculated according to standard methods. The IC90 (expressed in μg/ml) was defined as the 90% inhibitory concentration for bacterial growth.

This is an account of results in patent US7915292B2, “Antibacterial quinoline derivatives” (Janssen Pharmaceutica NV, priority 2005, dated 2011).

Converted amounts (≈) assume the structure as drawn.

For the compound `Cc1ccc2nc(-c3ccccc3)c(C(c3ccccc3)N(CC(=O)N(C)C)Cc3ccccc3)cc2c1` (centres unmarked) [Compound 45], the IC50 in assay [1] is 10 µM; in the assay with M. Smegmatis ATCC607 it was 1000 nM.
Take `Cc1ccc2nc(-c3ccccc3)c(C(c3ccccc3)N(CC(=O)N(C)CC#N)Cc3ccccc3)cc2c1` (centres unmarked) [Compound 46]: the “M. tuberculosis pIC50” value in assay [1] turned out to be 5.0. The “M. smegmatis pIC50” value in the assay on M. Smegmatis ATCC607 came to 5.8.
As for `CCN(CC)C(=O)CN(Cc1ccccc1)C(c1ccccc1)c1cc2cc(C)ccc2nc1-c1ccccc1` (centres unmarked) [Compound 47], the IC50 is 6.31 µM in assay [1] and 316 nM in the assay with M. Smegmatis ATCC607.
Take `CCN(Cc1ccccc1)C(=O)CN(Cc1ccccc1)C(c1ccccc1)c1cc2cc(C)ccc2nc1-c1ccccc1` (centres unmarked) [Compound 48]: in assay [1], the “M. tuberculosis pIC50” value is 4.1.
`CCCN(CCC)C(=O)CN(Cc1ccccc1)C(c1ccccc1)c1cc2cc(C)ccc2nc1-c1ccccc1` (centres unmarked) [Compound 49]: in assay [1], the “M. tuberculosis pIC50” value worked out at 4.6. Also, the “M. smegmatis pIC50” value in the assay on M. Smegmatis ATCC607 is 5.2.
Regarding `CNC(=O)CN(Cc1ccccc1)C(c1ccccc1)c1cc2cc(Br)ccc2nc1-c1ccccc1` (centres unmarked) [Compound 52], the “IC90 (μg/ml) ECO 25922” value in the assay on ECO 25922 came out at 13.8 µg/mL (≈ 25.1 µM). Further, in the assay on M. Smegmatis ATCC607, the “M. smegmatis pIC50” value is 5.8.
Turning to `O=C(CN(Cc1ccccc1)C(c1ccccc1)c1cc2ccccc2nc1-c1ccccc1)N1CCCC1` (centres unmarked) [Compound 55], in assay [1], the “M. tuberculosis pIC50” value is 4.3. In addition, the “IC90 (μg/ml) ECO 25922” value in the assay with ECO 25922 worked out at 12.9 µg/mL (≈ 25.2 µM). Moreover, the “M. smegmatis pIC50” value in the assay on M. Smegmatis ATCC607 came out at 6.0.
As for `Cc1ccc2nc(-c3ccccc3)c(C(c3ccccc3)N(CC(=O)N3CCCC3)Cc3ccccc3)cc2c1` (centres unmarked) [Compound 64], the “M. tuberculosis pIC50” value in assay [1] is reported as 5.0. For the same compound, the “M. smegmatis pIC50” value in the assay on M. Smegmatis ATCC607 was 6.5.
In the case of `Cc1ccc2nc(-c3ccccc3)c(C(c3ccccc3)N(CC(=O)N3CCSC3)Cc3ccccc3)cc2c1` (centres unmarked) [Compound 65], the “M. tuberculosis pIC50” value in assay [1] is on record as 5.0. Besides, the “IC90 (μg/ml) ECO 25922” value in the assay on ECO 25922 was found to be 13.7 µg/mL (≈ 25.2 µM). In addition, the “M. smegmatis pIC50” value in the assay on M. Smegmatis ATCC607 is on record as 6.5.
`Cc1ccc2nc(-c3ccccc3)c(C(c3ccccc3)N(CC(=O)N3CCC(C)CC3)Cc3ccccc3)cc2c1` (centres unmarked) [Compound 67]: the “M. tuberculosis pIC50” value in assay [1] stood at 5.7. The “M. smegmatis pIC50” value in the assay on M. Smegmatis ATCC607 stood at 6.0.
The corresponding values for `Cc1ccc2nc(-c3ccccc3)c(C(c3ccccc3)N(CC(=O)N3CCOCC3)Cc3ccccc3)cc2c1` (centres unmarked) [Compound 68] are 5.1 and 6.5.
For `Cc1ccc2nc(-c3ccccc3)c(C(c3ccccc3)N(CC(=O)N3CC(C)OC(C)C3)Cc3ccccc3)cc2c1` (centres unmarked) [Compound 71] the same measures were 5.1 and 5.7.
In the case of `Cc1ccc2nc(-c3ccccc3)c(C(c3ccccc3)N(CC(=O)N3Cc4ccccc4C3)Cc3ccccc3)cc2c1` (centres unmarked) [Compound 73], the “M. tuberculosis pIC50” value in assay [1] came out at 4.5.
For the compound `Cc1ccc2nc(-c3ccccc3)c(C(c3ccccc3)N(CC(=O)N3CCc4ccccc4C3)Cc3ccccc3)cc2c1` (centres unmarked) [Compound 74], the “M. tuberculosis pIC50” value in assay [1] came to 5.0. Besides, the “IC90 (μg/ml) ECO 25922” value with ECO 25922 is 14.8 µg/mL (≈ 25.2 µM). Further, the “M. smegmatis pIC50” value with M. Smegmatis ATCC607 worked out at 5.2.
`Cc1ccc2nc(-c3ccccc3)c(C(c3ccccc3)N(CC(=O)N3CCN(c4ccccn4)CC3)Cc3ccccc3)cc2c1` (centres unmarked) [Compound 75]: the “M. tuberculosis pIC50” value in assay [1] amounted to 5.4.
Same read-out and setting: with `Cc1ccc2nc(-c3ccccc3)c(C(c3ccccc3)N(CC(=O)N3CCN(c4ncccn4)CC3)Cc3ccccc3)cc2c1` (centres unmarked) [Compound 76] the figure was 5.0.
With `Cc1ccc2nc(-c3ccccc3)c(C(c3ccccc3)N(CC(=O)N3CCN(Cc4ccccc4)CC3)Cc3ccccc3)cc2c1` (centres unmarked) [Compound 78], in assay [1], the “M. tuberculosis pIC50” value came to 6.05.
On the same count and under the same terms, with `Cc1ccc2nc(-c3ccccc3)c(C(c3ccccc3)N(CC(=O)N3CCC(Cc4ccccc4)CC3)Cc3ccccc3)cc2c1` (centres unmarked) [Compound 79] the figure was 5.7.
With `COc1nc2ccc(Br)cc2cc1C(c1ccccc1)N(C)CC(=O)N1CCSCC1` (centres unmarked) [Compound 88], the “M. tuberculosis pIC50” value in assay [1] is 4.05. The “M. smegmatis pIC50” value in the assay with M. Smegmatis ATCC607 came to 4.9.
The corresponding values for `COc1nc2ccc(Br)cc2c(Cl)c1C(c1ccccc1)N(C)CC(=O)N1CCSCC1` (centres unmarked) [Compound 97] are 4.2 and 4.4.
Regarding `COc1nc2ccc(Br)cc2cc1C(c1ccccc1)N(CC(=O)N1CCOCC1)Cc1ccoc1` (centres unmarked) [Compound 102], the “IC90 (μg/ml) ECO 25922” value in the assay with ECO 25922 is 13.8 µg/mL (≈ 25.1 µM). For the same compound, in the assay on M. Smegmatis ATCC607, the “M. smegmatis pIC50” value is given as 5.8.
For `COc1nc2ccc(Br)cc2cc1C(c1ccccc1)N(CC(=O)N1CCCC1)Cc1ccccc1` (centres unmarked) [Compound 103] the same measures were 13.7 µg/mL (≈ 25.2 µM) and 4.5.
In the case of `COc1nc2ccc(Br)cc2cc1C(c1ccccc1)N(CC(=O)N1CCOCC1)Cc1ccccc1` (centres unmarked) [Compound 105], in the assay with ECO 25922, the “IC90 (μg/ml) ECO 25922” value came out at 14.1 µg/mL (≈ 25.2 µM). Besides, the “M. smegmatis pIC50” value with M. Smegmatis ATCC607 is on record as 6.0.
Regarding `COc1nc2ccc(Br)cc2cc1C(c1ccccc1)N(CC(=O)N1CCSCC1)Cc1ccccc1` (centres unmarked) [Compound 106], the “M. tuberculosis pIC50” value in assay [1] was less than 4. Moreover, the “IC90 (μg/ml) ECO 25922” value with ECO 25922 is 14.5 µg/mL (≈ 25.1 µM). In the assay with M. Smegmatis ATCC607, the “M. smegmatis pIC50” value is 6.4.
Take `COc1nc2ccc(Br)cc2cc1C(c1ccccc1)N(CC(=O)N1CCOCC1)Cc1ccccc1Cl` (centres unmarked) [Compound 108]: in the assay with ECO 25922, the “IC90 (μg/ml) ECO 25922” value came out at 14.9 µg/mL (≈ 25 µM). The “M. smegmatis pIC50” value with M. Smegmatis ATCC607 is recorded as 5.9.
For `COc1nc2ccc(Br)cc2cc1C(c1ccccc1)N(CC(=O)N1CCOCC1)Cc1cccnc1` (centres unmarked) [Compound 111] the same measures were 14.1 µg/mL (≈ 25.1 µM) and 5.8.
For `COc1nc2ccc(Br)cc2cc1C(c1ccccc1)N(CCC(=O)N1CCOCC1)Cc1ccccc1` (centres unmarked) [Compound 120] the same measures were 14.4 µg/mL (≈ 25.1 µM) and 5.6.
For `COc1nc2ccc(C#N)cc2cc1C(c1ccccc1)N(CC(=O)N1CCOCC1)Cc1ccccc1` (centres unmarked) [Compound 124] the same measures were 12.7 µg/mL (≈ 25.1 µM) and 5.05.
`CCOC(=O)CN(C)C(c1ccccc1)c1cc2cc(Br)ccc2nc1OC` (centres unmarked) [Compound 131]: the IC50 in assay [1] is 31.6 µM; in the assay with M. Smegmatis ATCC607 it was 1000 nM.
Consider `CCOC(=O)CN(C(C)C)C(c1ccccc1)c1cc2cc(Br)ccc2nc1OC` (centres unmarked) [Compound 133], for which the “M. tuberculosis pIC50” value in assay [1] was 4.4. Also, the “M. smegmatis pIC50” value with M. Smegmatis ATCC607 is 5.7.
Take `CCOC(=O)CN(Cc1ccoc1)C(c1ccccc1)c1cc2cc(Br)ccc2nc1OC` (centres unmarked) [Compound 136]: the “M. smegmatis pIC50” value in the assay on M. Smegmatis ATCC607 is on record as 4.4.
Still for that read-out and setting: in the case of `CCOC(=O)CN(Cc1ccccn1)C(c1ccccc1)c1cc2cc(Br)ccc2nc1OC` (centres unmarked) [Compound 139] it was 4.3.
As to `CCOC(=O)CN(Cc1ccccc1)C(c1ccccc1)c1cc2cc(Br)ccc2nc1-c1ccccc1` (centres unmarked) [Compound 146], the IC50 in assay [1] is 50.1 µM; in the assay on M. Smegmatis ATCC607, 501 nM. In addition, in the assay with ECO 25922, the IC90 was 14.2 µg/mL (≈ 25.1 µM).
Consider `CCOC(=O)CN(Cc1ccccc1)C(c1ccccc1)c1cc2cc(C)ccc2nc1-c1ccccc1` (centres unmarked) [Compound 150], for which the IC50 was 39.8 µM in assay [1] and 398 nM in the assay on M. Smegmatis ATCC607.
As for `CCOC(=O)CN(Cc1ccccc1)C(c1ccccc1)c1cc2cc(-c3cccnc3)ccc2nc1-c1ccccc1` (centres unmarked) [Compound 152], in the assay with ECO 25922, the IC90 turned out to be 14.2 µg/mL (≈ 25.2 µM). The IC50 in the assay with M. Smegmatis ATCC607 is 2510 nM.
As to `COc1nc2ccc(Br)cc2cc1C(c1ccccc1)[N+]([O-])(CC(=O)N1CCOCC1)Cc1ccccc1` (centres unmarked) [Compound 154], the IC50 with M. Smegmatis ATCC607 is 3980 nM.
